Test results: the kinase profiling compilation of Christmann-Franck et al. (2016)

Experiments:
Assay in all cases: radiometric filter-binding kinase assay
[1] = tested on: AKT2 (human), P31751 [S474D]
YES1 (human) = YES1 (human) (UniProt P07947)
CLK2 (human) = CLK2 (human) (UniProt P49760)
EPHB3 (human) = EPHB3 (human) (UniProt P54753)
PKN2 (human) = PKN2 (human) (UniProt Q16513)
IGF1R (human) = IGF1R (human) (UniProt P08069)
GSK3B (human) = GSK3B (human) (UniProt P49841)
SYK (human) = SYK (human) (UniProt P43405)
RPS6KA5 KD1 KD2 (human) = RPS6KA5 KD1 KD2 (human) (UniProt O75582)
PLK1 (human) = PLK1 (human) (UniProt P53350)
BRSK2 (human) = BRSK2 (human) (UniProt Q8IWQ3)
CSK (human) = CSK (human) (UniProt P41240)
ROCK2 (rat) = conditions: accession and sequence are those of the human protein
HIPK1 (human) = HIPK1 (human) (UniProt Q86Z02)
EPHB1 (human) = EPHB1 (human) (UniProt P54762)
PRKAA1 or PRKAA2 (rat) = conditions: accession and sequence are those of the human protein
MAP3K5 (human) = MAP3K5 (human) (UniProt Q99683)
HIPK3 (human) = HIPK3 (human) (UniProt Q9H422)
MAPK1 (human) = MAPK1 (human) (UniProt P28482)
MAPK13 (human) = MAPK13 (human) (UniProt O15264)
MAPK11 (human) = MAPK11 (human) (UniProt Q15759)
EPHB4 (human) = EPHB4 (human) (UniProt P54760)
MAP3K9 (human) = MAP3K9 (human) (UniProt P80192)
HIPK2 (human) = HIPK2 (human) (UniProt Q9H2X6)
SRC (human) = SRC (human) (UniProt P12931)
MAP3K1 (human) = MAP3K1 (human) (UniProt Q13233)
PAK6 (human) = PAK6 (human) (UniProt Q9NQU5)
PRKCZ (human) = PRKCZ (human) (UniProt Q05513)
CAMKK2 (human) = CAMKK2 (human) (UniProt Q96RR4)
DAPK1 (human) = DAPK1 (human) (UniProt P53355)
PAK7 (human) = PAK7 (human) (UniProt Q9P286)
MARK4 (human) = MARK4 (human) (UniProt Q96L34)
LCK (mouse) = conditions: accession and sequence are those of the human protein
MAP3K7 TAB1 (human) = MAP3K7 TAB1 (human) (UniProt Q15750+O43318)
INSR (human) = INSR (human) (UniProt P06213)
EPHA4 (human) = EPHA4 (human) (UniProt P54764)

Sequence of RPS6KA5 KD1 KD2 (human) (O75582 whole entry, looked up): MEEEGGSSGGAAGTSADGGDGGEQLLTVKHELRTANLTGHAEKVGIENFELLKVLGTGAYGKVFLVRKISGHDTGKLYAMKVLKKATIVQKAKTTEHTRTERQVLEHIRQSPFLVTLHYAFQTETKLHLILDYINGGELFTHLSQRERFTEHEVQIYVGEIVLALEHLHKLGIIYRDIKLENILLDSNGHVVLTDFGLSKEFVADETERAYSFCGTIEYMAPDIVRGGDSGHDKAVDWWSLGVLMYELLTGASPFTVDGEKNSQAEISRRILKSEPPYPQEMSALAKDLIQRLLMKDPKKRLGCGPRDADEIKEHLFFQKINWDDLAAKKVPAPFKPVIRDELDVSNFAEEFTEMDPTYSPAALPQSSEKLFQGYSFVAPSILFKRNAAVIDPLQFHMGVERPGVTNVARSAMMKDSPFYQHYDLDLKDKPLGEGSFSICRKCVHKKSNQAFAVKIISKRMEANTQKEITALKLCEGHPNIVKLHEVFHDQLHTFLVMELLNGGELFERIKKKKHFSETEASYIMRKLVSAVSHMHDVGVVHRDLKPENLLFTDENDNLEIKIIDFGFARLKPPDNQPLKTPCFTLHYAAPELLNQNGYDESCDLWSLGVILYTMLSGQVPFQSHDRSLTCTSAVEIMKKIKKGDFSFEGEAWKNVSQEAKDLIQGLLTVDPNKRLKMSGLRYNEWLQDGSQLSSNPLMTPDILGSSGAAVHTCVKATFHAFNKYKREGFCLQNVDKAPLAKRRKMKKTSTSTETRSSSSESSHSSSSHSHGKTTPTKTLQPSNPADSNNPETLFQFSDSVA
Sequence of HIPK1 (human) (Q86Z02 whole entry, looked up): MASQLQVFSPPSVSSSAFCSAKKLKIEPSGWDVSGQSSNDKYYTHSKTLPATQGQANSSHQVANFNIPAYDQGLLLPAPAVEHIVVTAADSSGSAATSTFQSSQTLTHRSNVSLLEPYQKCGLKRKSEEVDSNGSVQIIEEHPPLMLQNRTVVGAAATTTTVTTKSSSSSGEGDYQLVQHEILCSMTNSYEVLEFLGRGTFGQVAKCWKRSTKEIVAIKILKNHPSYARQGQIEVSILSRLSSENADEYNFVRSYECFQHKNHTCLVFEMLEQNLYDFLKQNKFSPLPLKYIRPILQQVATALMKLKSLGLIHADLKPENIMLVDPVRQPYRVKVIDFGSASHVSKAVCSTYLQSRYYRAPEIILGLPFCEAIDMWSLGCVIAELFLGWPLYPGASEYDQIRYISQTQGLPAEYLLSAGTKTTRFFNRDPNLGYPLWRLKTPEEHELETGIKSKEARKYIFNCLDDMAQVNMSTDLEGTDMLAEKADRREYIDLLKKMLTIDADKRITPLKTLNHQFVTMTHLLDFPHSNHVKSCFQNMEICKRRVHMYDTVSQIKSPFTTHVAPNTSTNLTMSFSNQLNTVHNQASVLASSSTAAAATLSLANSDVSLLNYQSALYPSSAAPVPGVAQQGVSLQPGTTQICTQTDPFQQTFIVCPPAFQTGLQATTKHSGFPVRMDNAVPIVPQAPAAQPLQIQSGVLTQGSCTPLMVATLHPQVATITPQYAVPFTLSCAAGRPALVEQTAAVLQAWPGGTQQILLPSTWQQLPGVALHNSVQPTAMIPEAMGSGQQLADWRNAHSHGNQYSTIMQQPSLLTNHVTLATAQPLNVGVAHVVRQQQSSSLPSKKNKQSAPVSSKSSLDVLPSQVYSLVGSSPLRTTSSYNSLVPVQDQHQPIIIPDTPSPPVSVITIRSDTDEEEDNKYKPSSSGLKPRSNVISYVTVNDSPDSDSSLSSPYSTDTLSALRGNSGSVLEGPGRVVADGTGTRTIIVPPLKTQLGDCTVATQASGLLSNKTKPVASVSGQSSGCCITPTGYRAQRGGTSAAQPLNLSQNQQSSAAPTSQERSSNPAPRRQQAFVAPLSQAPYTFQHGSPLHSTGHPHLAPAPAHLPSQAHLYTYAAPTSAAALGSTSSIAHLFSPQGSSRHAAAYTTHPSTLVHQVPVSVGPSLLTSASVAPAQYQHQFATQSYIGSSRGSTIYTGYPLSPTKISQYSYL
Sequence of MAPK1 (human) (P28482 whole entry, looked up): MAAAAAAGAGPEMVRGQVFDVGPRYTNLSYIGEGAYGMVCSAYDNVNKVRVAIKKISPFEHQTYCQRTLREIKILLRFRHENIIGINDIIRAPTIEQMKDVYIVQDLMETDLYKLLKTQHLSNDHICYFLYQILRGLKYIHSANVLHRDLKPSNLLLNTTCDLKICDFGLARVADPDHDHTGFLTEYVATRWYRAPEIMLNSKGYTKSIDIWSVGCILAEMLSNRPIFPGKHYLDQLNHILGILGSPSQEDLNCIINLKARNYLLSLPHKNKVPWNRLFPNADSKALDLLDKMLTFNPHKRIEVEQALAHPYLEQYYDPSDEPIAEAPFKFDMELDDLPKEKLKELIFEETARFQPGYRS
Sequence of BRSK2 (human) (Q8IWQ3 whole entry, looked up): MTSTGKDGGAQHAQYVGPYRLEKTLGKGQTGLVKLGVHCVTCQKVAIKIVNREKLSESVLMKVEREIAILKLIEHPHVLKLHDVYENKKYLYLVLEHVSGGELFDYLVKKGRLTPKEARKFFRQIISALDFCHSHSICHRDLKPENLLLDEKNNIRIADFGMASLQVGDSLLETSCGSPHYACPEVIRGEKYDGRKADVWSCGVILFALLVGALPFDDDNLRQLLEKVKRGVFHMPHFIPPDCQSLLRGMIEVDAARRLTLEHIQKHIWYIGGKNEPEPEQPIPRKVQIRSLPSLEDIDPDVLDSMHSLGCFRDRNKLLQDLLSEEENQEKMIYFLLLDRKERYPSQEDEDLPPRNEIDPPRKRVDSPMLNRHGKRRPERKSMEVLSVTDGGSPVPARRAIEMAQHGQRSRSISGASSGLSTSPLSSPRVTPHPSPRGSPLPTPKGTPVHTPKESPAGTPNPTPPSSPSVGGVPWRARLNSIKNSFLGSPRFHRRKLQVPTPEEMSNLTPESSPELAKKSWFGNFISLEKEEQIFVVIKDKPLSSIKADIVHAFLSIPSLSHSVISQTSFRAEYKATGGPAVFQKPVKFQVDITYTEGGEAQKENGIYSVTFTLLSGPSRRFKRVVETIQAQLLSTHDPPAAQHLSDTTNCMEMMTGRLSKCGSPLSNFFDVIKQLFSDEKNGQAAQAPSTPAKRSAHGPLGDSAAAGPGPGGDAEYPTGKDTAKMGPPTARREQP
Sequence of IGF1R (human) (P08069 whole entry, looked up): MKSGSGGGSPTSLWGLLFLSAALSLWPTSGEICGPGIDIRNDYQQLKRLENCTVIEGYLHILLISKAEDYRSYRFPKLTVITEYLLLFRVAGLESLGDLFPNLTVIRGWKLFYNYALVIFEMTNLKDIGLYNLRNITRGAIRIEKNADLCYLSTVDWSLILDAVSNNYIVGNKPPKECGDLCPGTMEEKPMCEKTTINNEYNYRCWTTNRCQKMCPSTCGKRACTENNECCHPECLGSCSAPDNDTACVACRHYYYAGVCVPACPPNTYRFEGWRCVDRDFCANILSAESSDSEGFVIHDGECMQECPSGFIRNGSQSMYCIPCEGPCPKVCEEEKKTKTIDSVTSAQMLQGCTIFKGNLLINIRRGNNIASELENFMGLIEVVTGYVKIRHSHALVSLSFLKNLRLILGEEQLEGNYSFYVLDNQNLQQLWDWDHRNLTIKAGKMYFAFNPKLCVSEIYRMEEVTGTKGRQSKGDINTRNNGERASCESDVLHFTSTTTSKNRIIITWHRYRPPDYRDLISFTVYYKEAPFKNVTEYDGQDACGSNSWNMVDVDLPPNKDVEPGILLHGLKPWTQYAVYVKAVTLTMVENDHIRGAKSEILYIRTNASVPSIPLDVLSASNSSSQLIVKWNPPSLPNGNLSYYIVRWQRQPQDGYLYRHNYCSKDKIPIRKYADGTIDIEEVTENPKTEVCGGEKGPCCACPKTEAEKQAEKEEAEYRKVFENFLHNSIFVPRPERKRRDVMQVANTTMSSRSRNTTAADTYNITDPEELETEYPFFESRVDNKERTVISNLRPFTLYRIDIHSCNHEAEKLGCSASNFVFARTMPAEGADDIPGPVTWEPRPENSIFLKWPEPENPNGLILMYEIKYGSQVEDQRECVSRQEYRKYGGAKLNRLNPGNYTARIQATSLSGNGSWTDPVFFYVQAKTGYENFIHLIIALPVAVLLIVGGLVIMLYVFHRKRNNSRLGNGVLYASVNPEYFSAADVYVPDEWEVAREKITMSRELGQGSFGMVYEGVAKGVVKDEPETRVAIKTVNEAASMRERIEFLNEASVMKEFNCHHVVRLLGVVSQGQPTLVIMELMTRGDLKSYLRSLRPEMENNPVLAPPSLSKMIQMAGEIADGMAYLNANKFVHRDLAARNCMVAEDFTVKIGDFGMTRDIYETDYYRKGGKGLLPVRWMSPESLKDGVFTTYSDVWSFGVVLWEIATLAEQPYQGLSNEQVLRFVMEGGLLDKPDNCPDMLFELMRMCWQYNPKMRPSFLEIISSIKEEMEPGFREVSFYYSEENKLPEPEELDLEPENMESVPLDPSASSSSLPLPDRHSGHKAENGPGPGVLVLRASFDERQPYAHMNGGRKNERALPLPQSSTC
Sequence of PRKCZ (human) (Q05513 whole entry, looked up): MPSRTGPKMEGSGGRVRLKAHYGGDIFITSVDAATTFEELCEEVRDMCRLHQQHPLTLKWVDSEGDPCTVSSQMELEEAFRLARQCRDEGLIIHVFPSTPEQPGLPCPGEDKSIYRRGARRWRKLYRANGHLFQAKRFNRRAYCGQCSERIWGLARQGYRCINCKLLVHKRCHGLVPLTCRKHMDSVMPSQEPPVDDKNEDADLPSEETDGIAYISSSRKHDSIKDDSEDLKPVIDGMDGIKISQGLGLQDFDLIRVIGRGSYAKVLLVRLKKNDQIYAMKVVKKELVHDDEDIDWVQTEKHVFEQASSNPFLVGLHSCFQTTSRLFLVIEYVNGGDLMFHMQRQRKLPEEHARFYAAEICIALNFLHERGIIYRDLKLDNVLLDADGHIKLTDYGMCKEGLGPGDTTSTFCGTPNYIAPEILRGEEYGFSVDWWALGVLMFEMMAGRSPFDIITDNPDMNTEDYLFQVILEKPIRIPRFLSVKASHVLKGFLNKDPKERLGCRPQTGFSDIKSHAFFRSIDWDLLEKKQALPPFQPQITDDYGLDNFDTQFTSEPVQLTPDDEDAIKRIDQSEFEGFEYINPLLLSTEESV

residual activity ([1]; compound 0.01 µM): 125%
residual activity ([1]; compound 0.1 µM): 118%
residual activity ([1]; compound 1.0 µM): 107%
residual activity ([1]; compound 10.0 µM): 56%
residual activity (YES1 (human); compound 0.01 µM): 122%
residual activity (YES1 (human); compound 0.1 µM): 119%
residual activity (YES1 (human); compound 1.0 µM): 106%
residual activity (YES1 (human); compound 10.0 µM): 98%
residual activity (CLK2 (human); compound 1.0 µM): 98%
residual activity (CLK2 (human); compound 10.0 µM): 88%
residual activity (EPHB3 (human); compound 0.01 µM): 106%
residual activity (EPHB3 (human); compound 0.1 µM): 107%
residual activity (EPHB3 (human); compound 1.0 µM): 120%
residual activity (EPHB3 (human); compound 10.0 µM): 103%
residual activity (PKN2 (human); compound 0.01 µM): 90%
residual activity (PKN2 (human); compound 0.1 µM): 102%
residual activity (PKN2 (human); compound 1.0 µM): 118%
residual activity (PKN2 (human); compound 10.0 µM): 81%
residual activity (IGF1R (human); compound 0.1 µM): 115%
residual activity (IGF1R (human); compound 1.0 µM): 98%
residual activity (IGF1R (human); compound 10.0 µM): 100%
residual activity (GSK3B (human); compound 0.01 µM): 108%
residual activity (GSK3B (human); compound 0.1 µM): 111%
residual activity (GSK3B (human); compound 1.0 µM): 106%
residual activity (SYK (human); compound 0.01 µM): 109%
residual activity (SYK (human); compound 0.1 µM): 105%
residual activity (SYK (human); compound 1.0 µM): 104%
residual activity (SYK (human); compound 10.0 µM): 105%
residual activity (RPS6KA5 KD1 KD2 (human); compound 0.01 µM): 102%
residual activity (RPS6KA5 KD1 KD2 (human); compound 0.1 µM): 100%
residual activity (RPS6KA5 KD1 KD2 (human); compound 1.0 µM): 95%
residual activity (RPS6KA5 KD1 KD2 (human); compound 10.0 µM): 66%
residual activity (PLK1 (human); compound 0.01 µM): 95%
residual activity (PLK1 (human); compound 0.1 µM): 113%
residual activity (BRSK2 (human); compound 0.01 µM): 114%
residual activity (BRSK2 (human); compound 0.1 µM): 110%
residual activity (BRSK2 (human); compound 10.0 µM): 15%
residual activity (CSK (human); compound 0.01 µM): 103%
residual activity (CSK (human); compound 0.1 µM): 104%
residual activity (CSK (human); compound 1.0 µM): 100%
residual activity (CSK (human); compound 10.0 µM): 93%
residual activity (ROCK2 (rat); compound 0.01 µM): 96%
residual activity (ROCK2 (rat); compound 0.1 µM): 92%
residual activity (ROCK2 (rat); compound 1.0 µM): 67%
residual activity (ROCK2 (rat); compound 10.0 µM): 27%
residual activity (HIPK1 (human); compound 0.01 µM): 102%
residual activity (HIPK1 (human); compound 0.1 µM): 105%
residual activity (HIPK1 (human); compound 1.0 µM): 94%
residual activity (HIPK1 (human); compound 10.0 µM): 112%
residual activity (EPHB1 (human); compound 1.0 µM): 111%
residual activity (EPHB1 (human); compound 10.0 µM): 118%
residual activity (PRKAA1 or PRKAA2 (rat); compound 0.01 µM): 107%
residual activity (PRKAA1 or PRKAA2 (rat); compound 0.1 µM): 111%
residual activity (PRKAA1 or PRKAA2 (rat); compound 1.0 µM): 91%
residual activity (PRKAA1 or PRKAA2 (rat); compound 10.0 µM): 44%
residual activity (MAP3K5 (human); compound 1.0 µM): 106%
residual activity (MAP3K5 (human); compound 10.0 µM): 99%
residual activity (HIPK3 (human); compound 0.01 µM): 111%
residual activity (HIPK3 (human); compound 0.1 µM): 105%
residual activity (HIPK3 (human); compound 1.0 µM): 99%
residual activity (HIPK3 (human); compound 10.0 µM): 103%
residual activity (MAPK1 (human); compound 0.01 µM): 117%
residual activity (MAPK1 (human); compound 0.1 µM): 111%
residual activity (MAPK1 (human); compound 1.0 µM): 107%
residual activity (MAPK1 (human); compound 10.0 µM): 109%
residual activity (MAPK13 (human); compound 0.01 µM): 106%
residual activity (MAPK13 (human); compound 0.1 µM): 113%
residual activity (MAPK13 (human); compound 1.0 µM): 93%
residual activity (MAPK13 (human); compound 10.0 µM): 101%
residual activity (MAPK11 (human); compound 0.01 µM): 113%
residual activity (MAPK11 (human); compound 0.1 µM): 129%
residual activity (MAPK11 (human); compound 1.0 µM): 105%
residual activity (MAPK11 (human); compound 10.0 µM): 109%
residual activity (EPHB4 (human); compound 1.0 µM): 119%
residual activity (EPHB4 (human); compound 10.0 µM): 117%
residual activity (MAP3K9 (human); compound 0.01 µM): 110%
residual activity (MAP3K9 (human); compound 0.1 µM): 111%
residual activity (MAP3K9 (human); compound 1.0 µM): 93%
residual activity (MAP3K9 (human); compound 10.0 µM): 78%
residual activity (HIPK2 (human); compound 0.01 µM): 119%
residual activity (HIPK2 (human); compound 0.1 µM): 124%
residual activity (HIPK2 (human); compound 1.0 µM): 95%
residual activity (HIPK2 (human); compound 10.0 µM): 113%
residual activity (SRC (human); compound 0.01 µM): 101%
residual activity (SRC (human); compound 0.1 µM): 105%
residual activity (SRC (human); compound 1.0 µM): 95%
residual activity (MAP3K1 (human); compound 1.0 µM): 87%
residual activity (MAP3K1 (human); compound 10.0 µM): 104%
residual activity (PAK6 (human); compound 0.01 µM): 108%
residual activity (PAK6 (human); compound 0.1 µM): 120%
residual activity (PAK6 (human); compound 1.0 µM): 99%
residual activity (PAK6 (human); compound 10.0 µM): 96%
residual activity (PRKCZ (human); compound 0.01 µM): 113%
residual activity (PRKCZ (human); compound 0.1 µM): 105%
residual activity (PRKCZ (human); compound 1.0 µM): 74%
residual activity (PRKCZ (human); compound 10.0 µM): 23%
residual activity (CAMKK2 (human); compound 0.01 µM): 112%
residual activity (CAMKK2 (human); compound 0.1 µM): 123%
residual activity (CAMKK2 (human); compound 1.0 µM): 99%
residual activity (CAMKK2 (human); compound 10.0 µM): 91%
residual activity (DAPK1 (human); compound 1.0 µM): 35%
residual activity (DAPK1 (human); compound 10.0 µM): 12%
residual activity (PAK7 (human); compound 0.01 µM): 97%
residual activity (PAK7 (human); compound 0.1 µM): 101%
residual activity (PAK7 (human); compound 1.0 µM): 97%
residual activity (PAK7 (human); compound 10.0 µM): 99%
residual activity (MARK4 (human); compound 0.01 µM): 106%
residual activity (MARK4 (human); compound 0.1 µM): 114%
residual activity (MARK4 (human); compound 1.0 µM): 99%
residual activity (MARK4 (human); compound 10.0 µM): 103%
residual activity (LCK (mouse); compound 0.01 µM): 112%
residual activity (LCK (mouse); compound 0.1 µM): 107%
residual activity (LCK (mouse); compound 1.0 µM): 97%
residual activity (LCK (mouse); compound 10.0 µM): 99%
residual activity (MAP3K7 TAB1 (human); compound 1.0 µM): 99%
residual activity (MAP3K7 TAB1 (human); compound 10.0 µM): 79%
residual activity (INSR (human); compound 0.01 µM): 101%
residual activity (INSR (human); compound 0.1 µM): 103%
residual activity (INSR (human); compound 1.0 µM): 101%
residual activity (INSR (human); compound 10.0 µM): 89%
residual activity (EPHA4 (human); compound 1.0 µM): 86%
residual activity (EPHA4 (human); compound 10.0 µM): 98%
Compound: CNc1nc(-c2ccc3c(N)n[nH]c3c2)cc(N2C[C@@H](C(=O)NC3CCCCC3)CC[C@H]2C)n1
